Source: PubChem BioAssay (NCI)
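A five-concentration, 48-hour dose response in 96-well plates underlies each endpoint, interpolated linearly between surrounding concentrations. TGI: total growth inhibition.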

What was measured:
Assay in all cases: growth of human tumour cells (NCI), 48 h
K-562 leukemia = test system: K-562 leukemia
SNB-19 CNS = test system: SNB-19 CNS
IGROV1 ovarian = test system: IGROV1 ovarian
A549 NSCLC = test system: A549 NSCLC
UO-31 renal = test system: UO-31 renal
NCI/ADR-RES ovarian = test system: NCI/ADR-RES ovarian
SN12C renal = test system: SN12C renal
HCT-116 colon = test system: HCT-116 colon
MCF7 breast = test system: MCF7 breast
MDA-MB-435 = test system: MDA-MB-435
OVCAR-3 ovarian = test system: OVCAR-3 ovarian
NCI-H226 lung = test system: NCI-H226 lung
SR leukemia = test system: SR leukemia

Row | SMILES | TGI (K-562 leukemia) [µM] | TGI (SNB-19 CNS) [µM] | TGI (IGROV1 ovarian) [µM] | TGI (A549 NSCLC) [µM] | TGI (UO-31 renal) [µM] | TGI (NCI/ADR-RES ovarian) [µM] | TGI (SN12C renal) [µM] | TGI (HCT-116 colon) [µM] | TGI (MCF7 breast) [µM] | TGI (MDA-MB-435) [µM] | TGI (OVCAR-3 ovarian) [µM] | TGI (NCI-H226 lung) [µM] | TGI (SR leukemia) [µM]
1 | CC1=CCC2C3(C)CCC2(C(C)C)C1C3 (stereo not drawn) (tested in a mixture with another compound) | 99 | 33.8 | 35.1 | 39 | 82.3 | 37.7 | 36.2 | > 100 | 34.3 | 88.2 | 30.2 |  | 
2 | O=C(O)CS | > 100 | > 100 | > 100 | > 100 | > 100 |  | > 100 | > 100 |  |  |  | > 100 | > 100
3 | Cc1c2c(n(CCc3ccccc3)c1C)N(C)N=C(C#N)S2(=O)=O |  | > 100 | > 100 | > 100 | > 100 | > 100 | > 100 | > 100 | > 100 | > 100 | > 100 | > 100 | > 100
4 | CC1(C)OB(O)OC1(C)C | > 100 | > 100 | > 100 | > 100 | > 100 |  | > 100 | > 100 |  |  | > 100 | > 100 | 
5 | C=C1C(=O)OC2/C=C(/C)C3CC(O)C(C)(CC(OC(=O)/C(C)=C/C)C12)O3 (stereo not drawn) | > 28.8 | 30.8 | 18.7 | 23.6 | 18.3 |  | 11.3 | 3.08 |  |  | 14.2 | 35.3 | > 24
6 | Cn1c(-c2cccs2)cc(-c2cccs2)c1-c1ccco1 | > 100 | > 100 | > 100 | > 100 | > 100 | > 100 | > 100 | > 100 | 5.41 |  | > 100 | > 100 | > 100
7 | CC(C)CCC[C@@H](C)C1CCC2[C@@H]3CC=C4C[C@@H](C(=O)NCC[N+](C)(C)CCCS(=O)(=O)[O-])CC[C@]4(C)C3CC[C@@]21C (stereo partly drawn) | 29.9 | 36.4 | 32.6 | 31.7 | 34.3 |  | 32.6 | 30.9 |  |  | 30 | 37.9 | 
8 | Cc1ccc(S(=O)(=O)N2C[C@](O)(c3ccccc3)[C@H]2C)cc1 |  | > 100 | > 100 | > 100 | > 100 | > 100 | > 100 | > 100 | > 100 | > 100 |  | > 100 | 
9 | CCOC(=O)Cc1csc2[n+]1C(=O)/C(=C\c1cccc(Cl)c1Cl)S2 |  | 88 | 50.6 | 35.8 | 27.1 | 33.2 | 37.8 | 25.7 | > 100 | > 100 | 42.1 | 32 | 
10 | CCN(CC)CCCC(C)Nc1ccnc2ccc3nn(C)nc3c12 (stereo not drawn) | 86.3 | > 100 | > 100 | > 100 | > 100 |  | > 100 | > 100 |  |  |  | > 100 | > 100
11 | N#CC(C#N)=C(N)/C(C#N)=C/c1ccc2ccccc2n1 | > 100 | 77.7 | 38.2 | > 100 | 30.9 | > 100 | > 100 | 28.4 | > 100 | > 100 | 33.4 | > 100 | 
12 | [N-]=[N+]=Nc1c(C=O)c(=O)n(-c2ccccc2)c2ccccc12 | 21.5 | > 100 | 44.8 | > 100 | 31.9 | 88.5 | > 100 |  | 64.2 | 34.5 | 32.4 |  | 
13 | CC1=C(C(=O)Nc2cc(=O)n(C)c(=O)n2C)C(c2ccc([N+](=O)[O-])cc2)C(C(=O)Nc2cc(=O)n(C)c(=O)n2C)=C(C)N1 | > 100 | > 100 | > 100 | > 100 | > 100 |  | > 100 | > 100 |  |  | > 100 | > 100 | 
14 | CCOC(=O)Cc1csc2[n+]1C(=O)/C(=C/c1cccc(OC)c1O)S2 |  | > 100 | > 100 | > 100 | > 100 | > 100 | > 100 | > 100 | > 100 | 50.5 | > 100 | > 100 | 
15 | O=C(Cc1csc(-c2nc(CC(=O)NNc3ccccc3)cs2)n1)NNc1ccccc1 | > 100 | > 100 | > 100 | > 100 | > 100 |  | > 100 | > 100 |  |  | > 100 | > 100 | 53.6
16 | COc1ccc(/C=C2\CCC(C)/C(=C\c3ccc(OC)c(OC)c3)C2=O)cc1OC (stereo not drawn) | 67.3 | 39.3 | 14.6 |  | 23.3 | 32.5 | 36.5 | 14.3 | 22.3 | > 100 | > 100 | 38.8 | 
17 | Cc1ccc2c(sc(-c3ccc4c(c3)sc(-c3ccc5c(c3)sc(-c3ccc(N(C)C)cc3)[n+]5C)[n+]4C)[n+]2C)c1S(=O)(=O)O (tested in a mixture with another compound) | > 100 | > 100 | > 100 | > 100 | > 100 | > 100 | > 100 | > 100 | > 100 | > 100 | > 100 |  | 
18 | CC(=O)c1ccc2c(ccc(=O)n2C)c1 | > 100 | > 100 | > 100 | > 100 |  |  | > 100 | > 100 |  |  | > 100 | > 100 | 
19 | CS(=O)(=O)c1c(N)c2nc(Cl)cn2c2nc3ccccc3nc12 | > 100 | > 100 | > 100 | > 100 | > 100 |  | > 100 | > 100 |  |  | > 100 | > 100 | > 100
20 | O=C(/C=C1\C[C@H]2C=Nc3ccccc3C(=O)N2C1)NCCCCNC(=O)/C=C1\C[C@H]2C=Nc3ccccc3C(=O)N2C1 | > 33.5 | 31.8 | 27.8 | 49.1 | 5.77 | 47.1 | 11.4 | 25.9 | 35.1 | 21 | 36.3 | 59.5 | 

Row | SMILES | TGI (K-562 leukemia) [µM] | TGI (SNB-19 CNS) [µM] | TGI (IGROV1 ovarian) [µM] | TGI (A549 NSCLC) [µM] | TGI (UO-31 renal) [µM] | TGI (NCI/ADR-RES ovarian) [µM] | TGI (SN12C renal) [µM] | TGI (HCT-116 colon) [µM] | TGI (MCF7 breast) [µM] | TGI (MDA-MB-435) [µM] | TGI (OVCAR-3 ovarian) [µM] | TGI (NCI-H226 lung) [µM] | TGI (SR leukemia) [µM]
21 | C=C(C)CC1(O)C(=O)C(OCC)=C1OCC (stereo not drawn) |  | > 100 | > 100 | > 100 | > 100 | > 100 | > 100 | > 100 | > 100 | > 100 | > 100 | > 100 | 
22 | c1ccc(C2=NOC3(c4ccccc4)SC4CCCCC4CN23)cc1 (stereo not drawn) | > 100 | > 100 | 32.8 | 58.5 | > 100 |  | > 100 | 50.4 |  |  | > 100 | > 100 | > 100
23 | C/C1=C/C(C)CC(C)OC(=O)C(C)NC(=O)C(Cc2ccc(O)c(I)c2)N(C)C(=O)C(C)NC(=O)C(C)C1 (stereo not drawn) | > 40.8 | > 100 | < 0.01 | > 100 |  | 24.4 | > 89.2 | > 48.7 | > 100 | 16 | < 0.01 |  | 5.8
24 | O=C(Cc1csc(N=Nc2c(O)[nH]c3ccccc23)n1)Nc1ccccc1 |  | 85.4 | 30.5 | > 100 | 93.3 | 41 | > 100 | 50.8 | > 100 | > 100 | 93.3 |  | 
25 | CC(=O)NNc1nc(C)c(C(/C=C/c2ccc([N+](=O)[O-])cc2)=N/NC(N)=S)s1 |  | > 100 | > 100 | > 100 | > 100 | > 100 | > 100 | > 100 | > 100 | > 100 | > 100 | > 100 | > 100
26 | CCCCc1ccc(Nc2nc(=S)c3[nH]cnc3[nH]2)cc1 | > 100 | 56.8 | 40.4 | > 100 | > 100 | 40.3 | 59 | > 100 |  | 48.1 | 43 | 31.6 | 
27 | C#CCN(N=O)C(=O)NC(CCCNC(=O)OCc1ccccc1)C(=O)OCc1ccccc1 (stereo not drawn) | > 100 | > 100 | > 100 | > 100 | > 100 |  | > 100 | > 100 |  |  | > 100 | > 100 | 84.2
28 | CCN(CC)C(=S)SS(=O)(=O)c1ccc(Cl)cc1 | 63.3 | > 100 |  | > 100 | 35.7 | > 100 | 48.2 | > 100 |  | 48.5 | > 100 | > 100 | 21.1
29 | Cc1nc(C(N)=S)sc1C(/C=C/c1ccc(Cl)c(Cl)c1)=N/NC(C)(C)C |  | > 100 | > 100 | > 100 | > 100 | > 100 | > 100 | > 100 | > 100 | > 100 |  | > 100 | 
30 | O=C(O)CNc1ccc(C(=O)O)cc1 | > 100 | > 100 | > 100 | > 100 | > 100 | > 100 | > 100 | > 100 | > 100 | > 100 | > 100 | > 100 | 
31 | CC(C)(C)NC(=O)NC12CC3CC(CC(F)(C3)C1)C2 | > 100 | > 100 | > 100 | > 100 | > 100 |  |  | > 100 |  |  | > 100 |  | 
32 | Cc1ccc(N=N/C(=N/NC(=O)c2cc(Cl)ccc2C(=O)c2ccccc2)c2ccc(N(CCC#N)CCC#N)cc2C)cc1 | > 100 | > 100 | 41.3 | 58.7 | > 100 | 62.1 | 87.7 | 31.5 | 15.2 | 82 | 16.4 | 38 | 
33 | Cc1cc(S(=O)(=O)/N=C(\[N-]S(=O)(=O)c2ccc(Cl)cc2)[n+]2ccc(N(C)C)cc2)c(S)cc1Cl | > 100 |  | > 100 |  | > 100 | > 100 |  | 44.7 | > 100 | > 100 | > 100 | > 100 | 3.13
34 | CCOC(=O)c1sc(N/N=C2\NC(=O)/C(=C/c3ccc([N+](=O)[O-])cc3)S2)nc1C |  | > 100 | 35.4 | > 100 | 47 | 66.1 | 88.2 | 36.7 | 72.5 | 77.3 | 49.9 | 55.1 | 29.4
35 | Clc1ccccc1C1=NN(c2ccccc2)C2c3ccccc3OCC12 (stereo not drawn) | > 100 | > 100 | > 100 | > 100 | > 100 |  |  | > 100 |  |  | > 100 |  | 
36 | CC1(C)CC(=O)C2=C(C1)NC1=C(C(=O)CC(C)(C)C1)C2c1ccc([N+](=O)[O-])cc1 | > 100 | > 100 | > 100 | > 100 | > 100 |  | > 100 | > 100 | > 100 | > 100 | > 100 | > 100 | 
37 | C/C=C\C(CC(=O)NCCC1CN(S(=O)(=O)C(F)(F)F)c2ccccc21)CC(=O)OC (stereo not drawn) | > 100 | > 100 | > 100 | > 100 | > 100 | > 100 |  | > 100 | > 100 |  | > 100 |  | > 100
38 | COc1ccc(C2Oc3cc(OC)c(O)c(C)c3[C@H]2C)cc1 (stereo partly drawn) | > 100 | > 100 | > 100 | > 100 | 78 |  |  | > 100 |  |  | > 100 | > 100 | 
39 | C/C=C1/CN2CCC3(O)c4ccccc4N4C=C(C(=O)OC)C1CC2C43O (stereo not drawn) | > 100 | > 100 | > 100 | > 100 | > 100 | > 100 | > 100 | > 100 | > 100 | > 100 | > 100 |  | > 100
40 | NC(=O)c1coc(C2OC(CO)C(O)C2O)n1 (stereo not drawn) | > 100 | > 100 | > 100 | > 100 | > 100 |  | > 100 | > 100 |  |  | > 100 | > 100 | > 100
